Reference: publication PMC4340503 (Nature, 2008)
Where a SMILES comes first, the peptide text is derived from it. [ ]: non-standard residue; d: D form. The star is where a group is joined. X1 = CCCCCCCCCCCCCCCC(=O)OC[C@H](COP(=O)(O)OCCNC(=O)CCCc1ccc(N2C(=O)CC(*)C2=O)cc1)OC(=O)CCCCCCCCCCCCCCC; pS = N[C@@H](COP(=O)(O)O)C(=O)O

Experiments:
AP2 core σ2L103S = AP2 core σ2L103S (UniProt P17427+P62743+P63010+P84092, L103S); type: binding; conditions: pH 8.7
AP2 core σ2V88D = AP2 core σ2V88D (UniProt P17427+P62743+P63010+P84092, V88D); type: binding; conditions: pH 8.7
AP2 core σ2V88D, sequence (P62743 whole entry V88D): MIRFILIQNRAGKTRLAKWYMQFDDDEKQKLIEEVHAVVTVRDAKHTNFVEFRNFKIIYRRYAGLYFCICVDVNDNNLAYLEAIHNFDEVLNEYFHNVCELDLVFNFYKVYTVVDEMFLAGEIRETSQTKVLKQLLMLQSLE
AP2 core σ2V88D, sequence (P63010 1-591, stated change not applied): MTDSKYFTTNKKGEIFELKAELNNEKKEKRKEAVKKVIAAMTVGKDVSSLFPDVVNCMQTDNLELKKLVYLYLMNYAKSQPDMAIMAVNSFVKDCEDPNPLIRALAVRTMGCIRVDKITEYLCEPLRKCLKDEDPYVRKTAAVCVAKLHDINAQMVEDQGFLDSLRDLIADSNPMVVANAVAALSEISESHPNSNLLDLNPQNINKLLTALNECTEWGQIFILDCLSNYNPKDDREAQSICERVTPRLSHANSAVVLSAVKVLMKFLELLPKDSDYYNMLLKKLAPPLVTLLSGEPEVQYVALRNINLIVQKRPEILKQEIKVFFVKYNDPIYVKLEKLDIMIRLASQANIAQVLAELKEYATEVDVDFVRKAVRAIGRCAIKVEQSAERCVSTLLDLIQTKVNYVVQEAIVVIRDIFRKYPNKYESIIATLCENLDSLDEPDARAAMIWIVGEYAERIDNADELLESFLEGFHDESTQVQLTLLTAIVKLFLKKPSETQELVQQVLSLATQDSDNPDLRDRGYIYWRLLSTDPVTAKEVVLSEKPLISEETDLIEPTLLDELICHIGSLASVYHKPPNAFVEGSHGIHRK
AP2 core σ2V88D, sequence (P84092 whole entry, stated change not applied): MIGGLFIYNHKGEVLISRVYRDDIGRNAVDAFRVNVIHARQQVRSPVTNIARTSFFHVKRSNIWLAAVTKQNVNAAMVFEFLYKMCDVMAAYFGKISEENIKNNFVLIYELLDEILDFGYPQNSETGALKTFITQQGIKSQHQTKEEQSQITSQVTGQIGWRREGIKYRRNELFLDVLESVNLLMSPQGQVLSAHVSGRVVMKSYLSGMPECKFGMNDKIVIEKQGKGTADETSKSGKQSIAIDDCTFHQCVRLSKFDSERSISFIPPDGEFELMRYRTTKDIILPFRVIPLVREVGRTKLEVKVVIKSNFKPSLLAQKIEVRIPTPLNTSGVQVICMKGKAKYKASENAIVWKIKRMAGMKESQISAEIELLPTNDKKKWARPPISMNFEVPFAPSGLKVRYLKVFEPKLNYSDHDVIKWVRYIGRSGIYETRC
AP2 core σ2V88D, sequence (P17427 1-621): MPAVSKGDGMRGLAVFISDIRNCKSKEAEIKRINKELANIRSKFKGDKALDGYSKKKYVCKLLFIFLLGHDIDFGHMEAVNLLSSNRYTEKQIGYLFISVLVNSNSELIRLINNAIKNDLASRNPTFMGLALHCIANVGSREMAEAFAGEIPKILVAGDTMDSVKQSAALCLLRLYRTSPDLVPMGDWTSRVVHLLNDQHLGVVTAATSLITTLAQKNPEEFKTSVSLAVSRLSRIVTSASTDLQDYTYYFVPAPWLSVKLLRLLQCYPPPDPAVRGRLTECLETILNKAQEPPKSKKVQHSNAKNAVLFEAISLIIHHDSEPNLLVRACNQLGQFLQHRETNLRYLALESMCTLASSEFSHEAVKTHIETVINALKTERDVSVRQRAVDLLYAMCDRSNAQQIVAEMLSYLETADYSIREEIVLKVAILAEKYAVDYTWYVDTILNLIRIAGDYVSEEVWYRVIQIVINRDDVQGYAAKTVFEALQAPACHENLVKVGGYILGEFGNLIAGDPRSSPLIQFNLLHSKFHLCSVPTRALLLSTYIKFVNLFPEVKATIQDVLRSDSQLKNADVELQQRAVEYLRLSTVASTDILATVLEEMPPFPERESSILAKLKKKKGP

AP2 core σ2L103S, sequence (P62743 whole entry L103S): as the sequence (P62743 whole entry V88D) above, with D88V, L103S counted along it
AP2 core σ2L103S, sequence (P84092 whole entry): as the sequence (P84092 whole entry, stated change not applied) above
AP2 core σ2L103S, sequence (P17427 1-621): as the sequence (P17427 1-621) above
AP2 core σ2L103S, sequence (P63010 1-591): as the sequence (P63010 1-591, stated change not applied) above

SMILES: CCCCCCCCCCCCCCCC(=O)OC[C@H](COP(=O)(O)OCCNC(=O)CCCc1ccc(N2C(=O)CC(SC[C@H](N)C(=O)N[C@@H](Cc3c[nH]cn3)C(=O)N[C@@H](CCCNC(=N)N)C(=O)N[C@@H](CCCNC(=N)N)C(=O)N[C@@H](CCCNC(=N)N)C(=O)N[C@@H](CCC(N)=O)C(=O)N[C@@H](C)C(=O)N[C@@H](CCC(=O)O)C(=O)N[C@@H](CCCNC(=N)N)C(=O)N[C@@H](CCSC)C(=O)N[C@@H](COP(=O)(O)O)C(=O)N[C@@H](CCC(N)=O)C(=O)N[C@H](C(=O)N[C@@H](CCCCN)C(=O)N[C@@H](CCCNC(=N)N)C(=O)N[C@@H](CC(C)C)C(=O)N[C@@H](CC(C)C)C(=O)N[C@@H](CO)C(=O)N[C@@H](CCC(=O)O)C(=O)N[C@@H](CCCCN)C(=O)O)[C@@H](C)CC)C2=O)cc1)OC(=O)CCCCCCCCCCCCCCC (some centres unmarked) [phospho-CD4 Q-peptide] (H-C(X1)HRRRQAERM[pS]QIKRLLSEK-OH; N-terminus and C-terminus assumed)
- KD (AP2 core σ2L103S): below detectable levels
- KD (AP2 core σ2V88D): below detectable levels
